Counter-ions that a name gives are not always drawn.
molecular target: KHK (Homo sapiens (Human), UniProt P50053); assay: In Vitro KHK Enzyme Assay (HTMS); type: biochemical; settings: 200 μM fructose, 100 μM ATP, 2 nM KHK, 60 min at 25° C.; Fructose-1-P detected by high throughput mass spectrometry;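 note: primary screen measuring inhibition of KHK-catalysed conversion of D-fructose into fructose 1-phosphate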
Sequence (P50053 whole entry): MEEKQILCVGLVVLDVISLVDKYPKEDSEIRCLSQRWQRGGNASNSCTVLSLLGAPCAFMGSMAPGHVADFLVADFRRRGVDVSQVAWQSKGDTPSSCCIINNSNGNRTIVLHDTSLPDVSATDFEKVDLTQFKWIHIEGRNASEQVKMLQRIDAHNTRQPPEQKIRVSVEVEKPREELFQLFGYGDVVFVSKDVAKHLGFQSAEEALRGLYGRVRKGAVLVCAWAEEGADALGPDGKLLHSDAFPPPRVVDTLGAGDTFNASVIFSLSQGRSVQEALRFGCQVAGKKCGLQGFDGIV
Protocol: An enzymatic assay was developed to measure KHK-mediated conversion of D-fructose to Fructose-1-P (F-1-P) using High Throughput Mass Spectroscopy (HTMS) as a means of product detection. This assay served as a primary screen to evaluate the ability to inhibit KHK enzyme activity and it has been adapted to high throughput mass spectrometry (HTMS, BioTrove RapidFire™) format for higher throughput.
The compounds to be tested were dosed in 12-points concentration from 511 μM to 0.5 μM. […] The assay was carried out in 384-well plate format.

IC50 [µM]	SMILES
3.04	CSc1nn(-c2ccccc2)c2cc(N3CCN(CC4CCCNC4)C3=O)ccc12 (centres unmarked) [Compound 28, 1-(3-(Methylthio)-1-phenyl-1H-indazol-6-yl)-3-(piperidin-3-ylmethyl)imidazolidin-2-one hydrochloride]
14.7	CCOc1cc(-c2ccc(N3CC(C)NC(C)C3)cc2)nc2c1c(CC)nn2-c1ccccc1 (centres unmarked) [Compound 104, 6-[4-(3,5-Dimethyl-piperazin-1-yl)-phenyl]-4-ethoxy-3-ethyl-1-phenyl-1H-pyrazolo[3,4-b]pyridine]
0.7	CSc1nn(-c2ccccc2)c2cc(NC(=O)NC3CCNCC3)ccc12 [Compound 7, 1-(3-(Methylthio)-1-phenyl-1H-indazol-6-yl)-3-(piperidin-4-yl)urea hydrochloride]
1	CSc1nn(-c2ccccc2)c2cc(C(=O)CC3CCNCC3)ccc12 [Compound 160, 1-(3-Methylsulfanyl-1-phenyl-1H-indazol-6-yl)-2-piperidin-4-yl-ethanone]
1.51	Cc1nn(-c2ccccc2)c2nc(C3CCN(C4CCNC4)CC3)nc(O)c12 (centres unmarked) [Compound 88, 3-Methyl-1-phenyl-6-(1-pyrrolidin-3-yl-piperidin-4-yl)-1H-pyrazolo[3,4-d]pyrimidin-4-ol hydrochloride]
1.47	CCc1nn(-c2ccccc2)c2cc(N3CCC4(CCNC4)C3)ccc12 (centres unmarked) [Compound 51, 6-(2,7-Diaza-spiro[4.4]non-2-yl)-3-ethyl-1-phenyl-1H-indazole hydrochloride]
> 2	CSc1nn(-c2ccccc2)c2cc(C(O)C3CCNCC3)ccc12 (centres unmarked) [Compound 136, (3-Methylsulfanyl-1-phenyl-1H-indazol-6-yl)-piperidin-4-yl-methanol]
2.3	Cc1nn(-c2ccccc2)c2cc(N3CC(N4CCNCC4)C3)ccc12 [Compound 60, 3-Methyl-1-phenyl-6-(3-(piperazin-1-yl)azetidin-1-yl)-1H-indazole hydrochloride]
0.89	CSc1nn(-c2ccccc2)c2cc(NCCN3CCNCC3)ccc12 [Compound 165, (3-Methylsulfanyl-1-phenyl-1H-indazol-6-yl)-(2-piperazin-1-yl-ethyl)-amine]
0.92	CSc1nn(-c2ccc(Br)cc2)c2cc(OCC3CCNCC3)ccc12 [Compound 128, 1-(4-Bromo-phenyl)-3-methylsulfanyl-6-(piperidin-4-ylmethoxy)-1H-indazole]
5.17	CSc1nn(-c2ccccc2)c2cc(N3CCN(CC4CCNC4)C3=O)ccc12 (centres unmarked) [Compound 27, 1-(3-(Methylthio)-1-phenyl-1H-indazol-6-yl)-3-(pyrrolidin-3-ylmethyl)imidazolidin-2-one hydrochloride]
0.3	CCc1nn(-c2ccccc2)c2nc(-c3ccc(N4CC(C)NC(C)C4)cc3)cc(OC)c12 (centres unmarked) [Compound 98, 6-[4-(3,5-Dimethyl-piperazin-1-yl)-phenyl]-3-ethyl-4-methoxy-1-phenyl-1H-pyrazolo[3,4-b]pyridine]
0.86	CSc1nn(-c2ccccc2)c2cc(NC(=O)CC3CCCCN3)ccc12 (centres unmarked) [Compound 3, N-(3-(Methylthio)-1-phenyl-1H-indazol-6-yl)-2-(piperidin-2-yl)acetamide hydrochloride]
0.89	CCc1nn(-c2ccccc2)c2cc(N3CCC(N4CCNCC4)CC3)ccc12 [Compound 36, 3-Ethyl-1-phenyl-6-(4-piperazin-1-yl-piperidin-1-yl)-1H-indazole hydrochloride]
1.8	CCc1nn(-c2ccccc2)c2cc(N3CCN(C4CCNCC4)C3=O)ccc12 [Compound 49, 1-(3-Ethyl-1-phenyl-1H-indazol-6-yl)-3-(piperidin-4-yl)imidazolidin-2-one hydrochloride]
3.51	CCc1nn(-c2ccccc2)c2cc(N3CCN(c4ccncc4)CC3)ccc12 [Compound 47, 3-Ethyl-1-phenyl-6-(4-(pyridin-4-yl)piperazin-1-yl)-1H-indazole hydrochloride]
30	COc1nn(-c2ccccc2)c2cc(N3CCN(C4CCNCC4)C3=O)ccc12 [Compound 81, 1-(3-Methoxy-1-phenyl-1H-indazol-6-yl)-3-(piperidin-4-yl)imidazolidin-2-one hydrochloride]
7.45	Cc1nn(-c2ccccc2)c2nc(C3CCCN(C4CNC4)C3)nc(O)c12 (centres unmarked) [Compound 85, 6-(1-Azetidin-3-yl-piperidin-3-yl)-3-methyl-1-phenyl-1H-pyrazolo[3,4-d]pyrimidin-4-ol]

IC50 [µM]	SMILES
0.4	CSc1nn(-c2ccccc2)c2cc(C=CC3CCNCC3)ccc12 [Compound 153, 3-Methylsulfanyl-1-phenyl-6-(2-piperidin-4-yl-vinyl)-1H-indazole]
1.01	CSc1nn(-c2ccccc2)c2cc(NC(=O)c3ccncc3)ccc12 [Compound 8, N-(3-Methylsulfanyl-1-phenyl-1H-indazol-6-yl)-isonicotinamide]
0.26	CSc1nn(-c2ccccc2)c2cc(NC(=O)C3CCCN3)ccc12 (centres unmarked) [Compound 13, N-(3-(Methylthio)-1-phenyl-1H-indazol-6-yl)pyrrolidine-2-carboxamide hydrochloride]
> 2	CSc1nn(-c2ccccc2)c2cc(C(O)c3ccncc3)ccc12 (centres unmarked) [Compound 137, (3-Methylsulfanyl-1-phenyl-1H-indazol-6-yl)-pyridin-4-yl-methanol]
0.43	CSc1nn(-c2ccccc2)c2cc(N3CCN(C(=O)C4CCCCN4)CC3)ccc12 (centres unmarked) [Compound 35, (4-(3-(Methylthio)-1-phenyl-1H-indazol-6-yl)piperazin-1-yl)(piperidin-2-yl)methanone]
0.94	CCc1nn(-c2ccccc2)c2cc(NC(=O)c3ccc4[nH]cnc4c3)ccc12 [Compound 38, N-(3-Ethyl-1-phenyl-1H-indazol-6-yl)-1H-benzo[d]imidazole-5-carboxamide]
6.62	CSc1nn(-c2ccccc2)c2cc(C(=O)CC3CCCNC3)ccc12 (centres unmarked) [Compound 161, 1-(3-Methylsulfanyl-1-phenyl-1H-indazol-6-yl)-2-piperidin-3-yl-ethanone]
5.96	COc1nn(-c2ccccc2)c2cc(N3CCN(C4CNC4)CC3)ccc12 [Compound 74, 6-(4-(Azetidin-3-yl)piperazin-1-yl)-3-methoxy-1-phenyl-1H-indazole hydrochloride]
0.68	CSc1nn(-c2ccccc2)c2cc(N3CCN(C4CCNCC4)CC3)ccc12 [Compound 23, 3-(Methylthio)-1-phenyl-6-(4-(piperidin-4-yl)piperazin-1-yl)-1H-indazole hydrochloride]
1.65	CSc1nn(-c2ccc(F)cc2)c2cc(N3CCN(C4CCNCC4)CC3)ccc12 [Compound 135, 1-(4-Fluoro-phenyl)-3-methylsulfanyl-6-(4-piperidin-4-yl-piperazin-1-yl)-1H-indazole]
8.28	CSc1nn(-c2ccccc2)c2cc(C(=O)CC3CCCN3)ccc12 (centres unmarked) [Compound 163, 1-(3-Methylsulfanyl-1-phenyl-1H-indazol-6-yl)-2-pyrrolidin-2-yl-ethanone]
4.95	CSc1nn(-c2ccccc2)c2cc(N3CCN(C(=O)c4cccnc4)CC3)ccc12 [Compound 31, (4-(3-(Methylthio)-1-phenyl-1H-indazol-6-yl)piperazin-1-yl)(pyridin-3-yl)methanone]
> 10	CSc1nn(-c2ccccc2)c2cc(C=Cc3ccncc3)ccc12 [Compound 154, 3-Methylsulfanyl-1-phenyl-6-(2-pyridin-4-yl-vinyl)-1H-indazole]
> 30	CCc1nn(-c2ccccc2)c2cc(OC3CN(C4CCNCC4)C3)ccc12 [Compound 41, 3-Ethyl-1-phenyl-6-(1-(piperidin-4-yl)azetidin-3-yloxy)-1H-indazole hydrochloride]
0.6	CSc1nn(-c2ccccc2)c2cc(NCCC3CCNCC3)ccc12 [Compound 166, (3-Methylsulfanyl-1-phenyl-1H-indazol-6-yl)-(2-piperidin-4-yl-ethyl)-amine]
11.5	CCc1nn(-c2ccccc2)c2cc(N3CCN(CC)CC3)ccc12 [Compound 55, 3-Ethyl-6-(4-ethylpiperazin-1-yl)-1-phenyl-1H-indazole]
0.16	Cc1nn(-c2ccccc2)c2cc(NC(=O)c3ccc4[nH]cnc4c3)ccc12 [Compound 66, N-(3-methyl-1-phenyl-1H-indazol-6-yl)-1H-benzo[d]imidazole-5-carboxamide]

SMILES	IC50 [µM]
CSc1nn(-c2ccc(N)cc2)c2cc(C3=CCNCC3)ccc12 [Compound 116, 4-[3-Methylsulfanyl-6-(1,2,3,6-tetrahydro-pyridin-4-yl)-indazol-1-yl]-phenylamine]	0.16
CSc1nn(-c2ccc(F)cc2)c2cc(C3=CCNCC3)ccc12 [Compound 139, 1-(4-Fluoro-phenyl)-3-methylsulfanyl-6-(1,2,3,6-tetrahydro-pyridin-4-yl)-1H-indazole]	0.23
CSc1nn(-c2ccccc2)c2cc(N3CCNCC3)ccc12 [Compound 1, 3-(Methylsulfanyl)-1-phenyl-6-piperazin-1-yl-1H-indazole HCl salt]	0.56
CSc1nn(-c2ccccc2)c2cc(NC(=O)C3(c4ccccc4)CCNCC3)ccc12 [Compound 172, 4-Phenyl-piperidine-4-carboxylic acid (3-methylsulfanyl-1-phenyl-1H-indazol-6-yl)-amide]	2.15
CCc1nn(-c2ccccc2)c2cc(N3CCNCC3)ccc12 [Compound 42, 3-Ethyl-1-phenyl-6-(piperazin-1-yl)-1H-indazole]	0.57
Cc1nn(-c2ccccc2)c2cc(N3CCN(C)CC3)ccc12 [Compound 68, 3-Methyl-6-(4-methylpiperazin-1-yl)-1-phenyl-1H-indazole]	1.57
CSc1nn(-c2ccccc2C)c2cc(C3=CCNCC3)ccc12 [Compound 180, 3-Methylsulfanyl-6-(1,2,3,6-tetrahydro-pyridin-4-yl)-1-o-tolyl-1H-indazole]	> 10
CSc1nn(-c2cccc(C)c2)c2cc(N3CCNCC3)ccc12 [Compound 118, 3-Methylsulfanyl-6-piperazin-1-yl-1-m-tolyl-1H-indazole]	4.12
CCN1CCN(c2ccc3c(C)nn(-c4ccccc4)c3c2)CC1 [Compound 69, 6-(4-Ethylpiperazin-1-yl)-3-methyl-1-phenyl-1H-indazole 2,2,2-trifluoroacetic acid salt]	14.2

From patent US8822447B2, “Indazole compounds useful as ketohexokinase inhibitors” (Janssen Pharmaceutica NV, priority 2010, dated 2014)
